Data as given in US11446308B2, “Methods and compositions for the prevention and treatment of hearing loss” (St. Jude Children's Research Hospital, priority 2015, dated 2022).
Read-outs that look alike come from different tables or passages of the source. Residues, ends and D or L forms follow the SMILES beside them. *: point of attachment. Cbz = O=C(OCc1ccccc1)*; CH2F = FC*

How the values were obtained:
[1] = tested on: hair cells in zebrafish lateral line neuromasts; conditions: for Zebrafish LD50: 5-dpf larvae
Description: The experiments were performed with 5-dpf larval zebrafish of the *AB wild-type strain. Dose-response studies were performed to find the cisplatin concentration at which most of the hair cells in each neuromast were killed in the absence of a protective compound and at the same DMSO concentration (<0.2%).
Experiments were performed in 24-well plates with 5 fish per well in volumes of 1-2 mL. Fish were incubated with 5 μM and stained with 0.005% DASPEI vital dye for 15 minutes. After two washes with egg water, fish were visualized in an epiflourescence microscope. […] Results were plotted as percent survival of hair cells in the cisplatin-treated fish relative to the untreated fish (FIG. 4A-E).

HEI-OC1 cells [2] = tested on: HEI-OC1 cells
[3] = tested on: outer hair cells (OHCs) in mouse cochlear explants; assay: Protection against cisplatin-induced hair cell loss in neonatal (P3) mouse cochlear explants; type: cell-based; conditions: for IC50: read-out: Mouse Explant IC50; for OHCs protected against cisplatin (For x%): level of protection to which the stated explant IC50 refers; for OHC survival: 24 hr cisplatin co-treatment; for Explant Cisplatin LD50: LD50, unnumbered table
[4] = tested on: hair cells in zebrafish lateral line neuromasts; assay: Protection against cisplatin-induced hair cell loss in zebrafish lateral lines in vivo; conditions: 5-dpf larvae, 5 μM cisplatin
HEI-OC1 cells [5] = assay: Caspase-3/7 Glo assay, cisplatin-induced apoptosis in HEI-OC1 cell line
[6] = tested on: hair cells in mouse cochlear explants
mouse cochlear explants = conditions: cited from earlier work
[7] = tested on: mouse medulloblastoma neurosphere lines and human neuroblastoma cell lines; assay: Interference with cisplatin's killing function in tumor cell lines (Cell Titer Glo); type: cell-based; conditions: 48 hours, cisplatin 23 μM, compound 3×IC50
Description: FIG. 11 addresses interference with cisplatin's killing function in tumors. Four neurosphere lines derived from mouse medulloblastoma (MB) and two human neuroblastoma (NB) cell lines were tested. HEI-OC1 cell line was tested as controls.
Table 1 lists the top 18 compound hits in the screen in terms of high potency and low toxicity. The top ten compounds were further evaluated by a viability assay (Cell Titer Glo, Promega) in medulloblastoma neurosphere cell lines and neuroblastoma cell lines to test whether they inhibit the ability of cisplatin to kill the tumor cells. The majority had no antagonistic effect on cisplatin's antitumor activity (data not shown) and are therefore safe to use systemically together with cisplatin during chemotherapy to protect against cisplatin-induced hearing loss.

[8] = cited from earlier work
CDK1, 2, 4, 6 and 9 = conditions: range over the kinases; cited from earlier work
[9] = Mus musculus, 24 h, P3 cochlear explants, 50 μM cisplatin, 24 hrs
[10] = Mus musculus, HEI-OC1, 22 h, read-out: HEI-OC1 IC50
[11] = Cell Titer Glo, compound without cisplatin, 40 μM to 40 nM, 22 hrs
[12] = P3 cochlear explants, 50 μM cisplatin, 24 hrs
[13] = read-out: HEI-OC1 IC50, Caspase-3/7 Glo, 50 μM cisplatin, 22 hrs
[14] = Mus musculus, HEI-OC1, read-out: HEI-OC1 IC50

Compound: OC[C@H]1OC(c2nc3ccccc3[nH]2)[C@H](O)[C@@H]1O (stereo partly drawn) [Compound 13, D-Ribofuranosyl- benzimidazole]
- Zebrafish LD50 [1]: >75 µM
- HEI-OC1 LD50 (HEI-OC1 cells [2]; mouse, 22 h): >40 µM
- IC50 [3, 9]: ~8000 nM
- OHCs protected against cisplatin (For x%) [3]: (For 76%)
- Zebrafish IC50 [4]: No
- IC50 (HEI-OC1 cells [5]; [10]): 4000 nM

Compound: O=c1c2ccccc2[se]n1-c1ccccc1 [Ebselen, 2-phenyl-1,2-benzisoselenazol-3-one, reference compound]
- potency in protection against cisplatin (HEI-OC1 cells [5]; dose response): low potency

Compound: N.N.[Cl][Pt][Cl] [cisplatin, reference compound]
- death of outer hair cells (OHCs) ([6]; 50 μM, 24 hrs): ~40%
- hair cells killed ([1]; 5 μM, 20 hrs, no protective compound): 91%

Compound: Cc1oncc1C(=O)Nc1ccc(C(F)(F)F)cc1 [Compound 1, Leflunomide]
- Mouse Explant LD50 ([6]; mouse, 24 h): >50 µM
- Zebrafish LD50 [1]: >5.0 µM
- HEI-OC1 LD50 (HEI-OC1 cells [2]; mouse, 22 h): >40 µM
- OHC survival [3]: 100%
- Zebrafish IC50 [4]: No
- IC50 (HEI-OC1 cells [5]; [10]): 3000 nM

Compound: CN(C)CCOc1ccc(-c2cc(-c3ccc4c(c3)CC/C4=N\O)c(-c3ccncc3)o2)cc1 [Compound 14]
- HEI-OC1 LD50 (HEI-OC1 cells [2]; mouse, 22 h): >10 µM
- IC50 (HEI-OC1 cells [5]; [10]): 1300 nM

Compound: Cc1ccc(C(=O)Cn2c3c(sc2=N)CCCC3)cc1 [Pifithrin-α, reference compound]
- damage at protective doses (mouse cochlear explants; 20-100 μM): damage the hair cell stereocillia
- concentrations conferring protection from cisplatin-induced cell death (mouse cochlear explants; mouse cochlear explants): 20 to 100 µM
- concentration for full reduction of caspase-3/7 activity (HEI-OC1 cells [5]; 50 μM cisplatin): 34 µM
- IC50 (HEI-OC1 cells [5]; read-out: IC50, reduction of caspase-3/7 activity (caspase-3 cleavage), reference compound, 50 μM cisplatin): 17000 nM

Compound: CC(C)COC(=O)c1ccc2[nH]c(O)c(/C=N/c3ccc(S(N)(=O)=O)cc3)c2c1 [Compound 18]
- HEI-OC1 LD50 (HEI-OC1 cells [2]; mouse, 22 h): >40 µM
- IC50 (HEI-OC1 cells [5]; [10]): 3400 nM

Compound: COC(=O)C[C@H](NC(=O)[C@H](C)NC(=O)[C@@H](NC(=O)OCc1ccccc1)C(C)C)C(=O)CF [zVAD-fmk] (Cbz-Val-Ala-Asp(OMe)-CH2F)
- IC50 (mouse cochlear explants; read-out: IC50, inhibition of cisplatin-induced cell death in the mouse cochlea): 200 nM

Compound: COc1cccc(-c2c[nH]c3c(N/N=C/c4ccncc4)ncnc23)c1 [Compound 17]
- HEI-OC1 LD50 (HEI-OC1 cells [2]; mouse, 22 h): >40 µM
- IC50 (HEI-OC1 cells [5]; [10]): 2100 nM

Compound: Cyanocobalamin (vitamin B12) [Compound 6]
- Mouse Explant LD50 ([6]; P3 cochlear explants): >21 µM
- HEI-OC1 LD50 (HEI-OC1 cells [2]; [11]): >40 µM
- IC50 [3, 12]: ~21000 nM
- OHCs protected against cisplatin (For x%) [3]: (For 53%)
- IC50 (HEI-OC1 cells [5]; [13]): 4200 nM

Compound: CC[C@H](CO)Nc1nc(NCc2ccccc2O)c2ncn(C(C)C)c2n1 [Compound 9, Olomoucine II]
- Explant Cisplatin LD50 ([6]; mouse, 24 h): > 33000 nM
- Mouse Explant LD50 ([6]; mouse, 24 h): >33 µM
- Zebrafish LD50 [1]: >50 µM
- HEI-OC1 LD50 (HEI-OC1 cells [2]; mouse, 22 h): >40 µM
- protection against cisplatin-induced hair cell loss in cochlear explants ([3]; 50 μM cisplatin, 24 hrs): protect against cisplatin-induced hair cell loss
- OHC survival [3]: 100%
- Explant Cisplatin LD50 [3]: 3,000 nM
- Zebrafish IC50 [4]: No
- IC50 (HEI-OC1 cells [5]; [10]): 800 nM
- IC50 (HEI-OC1 cells [5]; [14]): 800 nM

Compound: O=c1cc(CN2CCOCC2)occ1OCCCCCSc1ccnc2cc(C(F)(F)F)ccc12 [Compound 7, EHT1864]
- Mouse Explant LD50 ([6]; mouse, 24 h): <20 µM
- Zebrafish LD50 [1]: <1.0 µM
- HEI-OC1 LD50 (HEI-OC1 cells [2]; mouse, 22 h): >20 µM
- interference with cisplatin anti-tumor activity [7]: no interference in all tumor cell lines (except one for Compound 7)
- IC50 [3, 9]: ~10000 nM
- OHCs protected against cisplatin (For x%) [3]: (For 58%)
- Zebrafish IC50 [4]: No
- IC50 (HEI-OC1 cells [5]; [10]): 2000 nM

Compound: Cc1ncc(-c2ccnc(Nc3ccc(S(C)(=O)=O)cc3)n2)n1C(C)C [SJZuo-19, AZD5438]
- Explant Cisplatin LD50 ([6]; mouse, 24 h): < 1000 nM
- Explant Cisplatin LD50 [3]: ~25 nM
- oral bioavailability, F [8]: 91%

Compound: Sc1nc2ccccc2s1 [Compound 10, 2-Mercapto-benzothiazole]
- HEI-OC1 LD50 (HEI-OC1 cells [2]; [11]): >10 µM
- IC50 [3, 9]: > 49000 nM
- IC50 (HEI-OC1 cells [5]; [10]): 7000 nM

Compound: CCCCCC[C@H]1C(=O)OC(C)C(NC(=O)c2cccc(NC=O)c2O)C(=O)O[C@@H](C)C1OC(=O)CC(C)C (stereo partly drawn) [Compound 5, Antimycin A]
- Mouse Explant LD50 ([6]; P3 cochlear explants): <4 µM
- Zebrafish LD50 [1]: <0.6 µM
- HEI-OC1 LD50 (HEI-OC1 cells [2]; [11]): >10 µM
- IC50 [3, 9]: ~1800 nM
- OHCs protected against cisplatin (For x%) [3]: (For 31%)
- Zebrafish IC50 [4]: No
- IC50 (HEI-OC1 cells [5]; [10]): 40 nM

Compound: CN[C@H](C#Cc1c(F)ccc2c1/C(=C/c1[nH]ccc1OC)C(=O)N2)CO [Compound 15]
- HEI-OC1 LD50 (HEI-OC1 cells [2]; mouse, 22 h): >10 µM
- IC50 (HEI-OC1 cells [5]; [10]): 100 nM

Compound: O=C(NC1CCNCC1)c1n[nH]cc1NC(=O)c1c(Cl)cccc1Cl [SJZuo-20, AT7519]
- Explant Cisplatin LD50 ([6]; mouse, 24 h): < 1000 nM
- Explant Cisplatin LD50 [3]: ~25 nM
- IC50 (HEI-OC1 cells [5]; [14]): 380 nM
- oral bioavailability, F [8]: < 1%

Compound: O=C1C=C2C(=CCOC2O)O1 (stereo not drawn) [Compound 11, Patulin]
- IC50 ([3]; Mus musculus, 24 h): 3000 to 9000 nM
- IC50 (HEI-OC1 cells [5]; [10]): 700 nM

Compound: O=C([O-])c1cc(/N=N/c2ccc(O)c(C(=O)[O-])c2)ccc1O.[Na+].[Na+] [Compound 2, Olsalazine sodium]
- Mouse Explant LD50 ([6]; P3 cochlear explants): >30 µM
- Zebrafish LD50 [1]: >30 µM
- HEI-OC1 LD50 (HEI-OC1 cells [2]; [11]): >40 µM
- IC50 [3, 12]: ~30000 nM
- OHCs protected against cisplatin (For x%) [3]: (For 50%)
- Zebrafish IC50 [4]: No
- IC50 (HEI-OC1 cells [5]; [13]): 6200 nM

Compound: O=C(Nc1n[nH]c2nc(-c3ccc(O)cc3)c(Br)cc12)C1CC1 [Compound 16]
- HEI-OC1 LD50 (HEI-OC1 cells [2]; mouse, 22 h): >40 µM
- IC50 (HEI-OC1 cells [5]; [10]): 800 nM

Compound: CCOc1cc2ncc(C#N)c(Nc3ccc(F)c(Cl)c3)c2cc1NC(=O)/C=C/CN(C)C [Compound 3, Pelitinib]
- Mouse Explant LD50 ([6]; mouse, 24 h): <13 µM
- Zebrafish LD50 [1]: <27 µM
- HEI-OC1 LD50 (HEI-OC1 cells [2]; mouse, 22 h): >40 µM
- IC50 [3, 9]: ~6000 nM
- OHCs protected against cisplatin (For x%) [3]: (For 50%)
- Zebrafish IC50 [4]: No
- IC50 (HEI-OC1 cells [5]; [10]): 600 nM
